This assay addresses T1, NHE-1 (Homo sapiens, UniProt P19634).
T1 construct: endogenous in cells; host or cells: HT-29
Nature of the assay: Evaluation of NHE-1 Inhibition (pHi) in HT-29 cells. Conditions: BCECF dye, 50% inhibition of the intracellular pH recovery, read-out: NHE1 HT29 pHi IC50. It counts as cell-based. A digest of the protocol: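 Intracellular pH measured with BCECF in HT-29 cells after 24 h culture. Cells dye-loaded 30 min at 37° C, then acid-loaded with NH4Cl-containing choline buffer (pH 7.5) for 30 min at RT. Compounds added on an FDSS6000 fluorescence reader.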

T1 sequence (P19634 whole entry): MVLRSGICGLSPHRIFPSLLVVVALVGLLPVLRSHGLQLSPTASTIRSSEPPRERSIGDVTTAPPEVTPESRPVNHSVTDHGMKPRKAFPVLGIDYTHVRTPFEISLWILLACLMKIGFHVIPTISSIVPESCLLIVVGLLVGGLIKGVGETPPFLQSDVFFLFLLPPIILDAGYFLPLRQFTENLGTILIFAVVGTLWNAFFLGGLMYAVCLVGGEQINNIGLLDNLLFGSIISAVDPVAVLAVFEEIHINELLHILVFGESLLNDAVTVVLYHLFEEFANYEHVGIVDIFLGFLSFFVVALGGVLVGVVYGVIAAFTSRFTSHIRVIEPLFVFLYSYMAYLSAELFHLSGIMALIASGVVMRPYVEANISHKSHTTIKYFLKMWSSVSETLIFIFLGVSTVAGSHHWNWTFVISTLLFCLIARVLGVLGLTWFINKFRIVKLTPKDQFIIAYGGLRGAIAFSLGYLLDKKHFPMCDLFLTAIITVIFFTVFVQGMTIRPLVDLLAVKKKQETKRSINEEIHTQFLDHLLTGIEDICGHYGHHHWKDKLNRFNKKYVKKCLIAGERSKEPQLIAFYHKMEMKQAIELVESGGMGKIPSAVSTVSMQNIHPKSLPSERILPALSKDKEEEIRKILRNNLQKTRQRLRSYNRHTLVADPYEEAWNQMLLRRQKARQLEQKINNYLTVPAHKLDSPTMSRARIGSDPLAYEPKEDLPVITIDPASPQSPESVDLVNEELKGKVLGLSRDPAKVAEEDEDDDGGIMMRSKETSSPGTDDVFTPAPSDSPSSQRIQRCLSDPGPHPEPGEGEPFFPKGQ

With `N=C(N)NC(=O)c1ccc(C2CCN(C(=O)C3(N)CCOCC3)CC2)c(C(F)(F)F)c1` [N-{4-[1-(4-Amino-tetrahydro-pyran-4-carbonyl)-piperidin-4-yl]-3-trifluoromethyl-benzoyl}-guanidine], the IC50 (as a rule, the concentration needed to halve the response being measured) was 18 nM.

As to `N=C(N)NC(=O)c1ccc(C2CCN(C(=O)c3ccc(C(F)(F)F)cc3F)CC2)c(C(F)(F)F)c1` [N-{4-[1-(2-Fluoro-4-trifluoromethyl-benzoyl)-piperidin-4-yl]-3-trifluoromethyl-benzoyl}-guanidine], the IC50 is 305 nM.

For the molecule `Cc1cc(C2CCN(C(=O)c3ccc(F)cc3)CC2)c(S(C)(=O)=O)cc1C(=O)NC(=N)N` [N-{4-[1-(4-Fluoro-benzoyl)-piperidin-4-yl]-5-methanesulfonyl-2-methyl-benzoyl}-guanidine], the IC50 was 23 nM.

With `N=C(N)NC(=O)c1ccc(C2CCN(C(=O)c3cccc(-c4cccnc4)c3)CC2)c(C(F)(F)F)c1` [N-{4-[1-(3-Pyridin-3-yl-benzoyl)-piperidin-4-yl]-3-trifluoromethyl-benzoyl}-guanidine], the IC50 stood at 140 nM.

`COCc1ccc(C(=O)N2CCC(c3ccc(C(=O)NC(=N)N)cc3C(F)(F)F)CC2)cc1` [N-{4-[1-(4-Methoxymethyl-benzoyl)-piperidin-4-yl]-3-trifluoromethyl-benzoyl}-guanidine]: the IC50 was 122 nM.

Regarding `N=C(N)NC(=O)c1ccc(C2CCN(C(=O)c3ccc(F)cc3C(F)(F)F)CC2)c(C(F)(F)F)c1` [N-{4-[1-(4-Fluoro-2-trifluoromethyl-benzoyl)-piperidin-4-yl]-3-trifluoromethyl-benzoyl}-guanidine], the IC50 was 350 nM.

Take `Cc1cc(C2CCN(C(=O)c3ccc4c(c3)CCC(=O)N4)CC2)c(C(F)(F)F)cc1C(=O)NC(=N)N` [N-{2-Methyl-4-[1-(2-oxo-1,2,3,4-tetrahydro-quinoline-6-carbonyl)-piperidin-4-yl]-5-trifluoromethyl-benzoyl}-guanidine]: the IC50 amounted to 63 nM.

Take `COc1ccc(CC(N)C(=O)N2CCC(c3ccc(C(=O)NC(=N)N)cc3C(F)(F)F)CC2)cc1` (centres unmarked): the IC50 turned out to be 37 nM.

Regarding `N=C(N)NC(=O)c1ccc(C2CCN(C(=O)c3ccc(-c4cnco4)cc3)CC2)c(C(F)(F)F)c1` [N-{4-[1-(4-Oxazol-5-yl-benzoyl)-piperidin-4-yl]-3-trifluoromethyl-benzoyl}-guanidine], the half-maximal inhibitory concentration (IC50) is 109 nM.

With `CN(C)C(=O)N1CCC(c2ccc(C(=O)NC(=N)N)cc2C(F)(F)F)CC1` [4-(4-Guanidinocarbonyl-2-trifluoromethyl-phenyl)-piperidine-1-carboxylic acid dimethylamide], the IC50 was 10 nM.

Turning to `Cc1cc(C2CCN(C(=O)c3ccncc3)CC2)c(C(F)(F)F)cc1C(=O)NC(=N)N` [N-{2-Methyl-4-[1-(pyridine-4-carbonyl)-piperidin-4-yl]-5-trifluoromethyl-benzoyl}-guanidine], the IC50 is 7 nM.

`Cc1cc(C2CCN(C(=O)c3cccnc3)CC2)c(C(F)(F)F)cc1C(=O)NC(=N)N` [N-{2-Methyl-4-[1-(pyridine-3-carbonyl)-piperidin-4-yl]-5-trifluoromethyl-benzoyl}-guanidine]: the IC50 was 30 nM.

On to `N=C(N)NC(=O)c1ccc(C2CCN(C(=O)c3ccc(C(N)=O)cc3)CC2)c(C(F)(F)F)c1` [4-[4-(4-Guanidinocarbonyl-2-trifluoromethyl-phenyl)-piperidine-1-carbonyl]-benzamide], for which the IC50 worked out at 28 nM.

Turning to `Cn1cncc1C(=O)N1CCC(c2ccc(C(=O)NC(=N)N)cc2C(F)(F)F)CC1` [N-{4-[1-(3-Methyl-3H-imidazole-4-carbonyl)-piperidin-4-yl]-3-trifluoromethyl-benzoyl}-guanidine], the IC50 worked out at 15 nM.

As to `N=C(N)NC(=O)c1ccc(C2CCN(C(N)=O)CC2)c(C(F)(F)F)c1` [4-(4-Guanidinocarbonyl-2-trifluoromethyl-phenyl)-piperidine-1-carboxylic acid amide], the IC50 is 6 nM.

Consider `N=C(N)NC(=O)c1ccc(C2CCN(C(=O)c3ccc4ncccc4c3)CC2)c(C(F)(F)F)c1` [N-{4-[1-(Quinoline-6-carbonyl)-piperidin-4-yl]-3-trifluoromethyl-benzoyl}-guanidine], for which the IC50 is 64 nM.

Consider `CCC(=O)N1CCC(c2cc(C)c(C(=O)NC(=N)N)cc2S(C)(=O)=O)CC1` [N-{5-methanesulfonyl-4-[1-propionyl-piperidin-4-yl]-2-methyl-benzoyl}-guanidine], for which the IC50 came out at 16 nM.

For the molecule `CC(C)C(=O)N1CCC(c2ccc(C(=O)NC(=N)N)cc2C(F)(F)F)CC1` [N-[4-(1-Isobutyryl-piperidin-4-yl)-3-trifluoromethyl-benzoyl]-guanidine], the IC50 was found to be 25 nM.

For the molecule `COCC(=O)N1CCC(c2ccc(C(=O)NC(=N)N)cc2C(F)(F)F)CC1` [N-{4-[1-(2-Methoxy-acetyl)-piperidin-4-yl]-3-trifluoromethyl-benzoyl}-guanidine], the IC50 came out at 22 nM.

As for `N=C(N)NC(=O)c1ccc(C2CCN(C(=O)CN3CCOCC3)CC2)c(C(F)(F)F)c1` [N-{4-[1-(2-Morpholin-4-yl-acetyl)-piperidin-4-yl]-3-trifluoromethyl-benzoyl}-guanidine], the IC50 came out at 25 nM.

For the molecule `COc1cccnc1C(=O)N1CCC(c2ccc(C(=O)NC(=N)N)cc2C(F)(F)F)CC1` [N-{4-[1-(3-Methoxy-pyridine-2-carbonyl)-piperidin-4-yl]-3-trifluoromethyl-benzoyl}-guanidine], the IC50 turned out to be 55 nM.

Take `N=C(N)NC(=O)c1ccc(C2CCN(C(=O)Cn3ccnc3)CC2)c(C(F)(F)F)c1` [N-{4-[1-(2-Imidazol-1-yl-acetyl)-piperidin-4-yl]-3-trifluoromethyl-benzoyl}-guanidine]: the IC50 was determined as 6 nM.

Turning to `COc1cc(C2CCN(C(=O)c3ccc4c(c3)CCC(=O)N4)CC2)c(C(F)(F)F)cc1C(=O)NC(=N)N` [N-{2-Methoxy-4-[1-(2-oxo-1,2,3,4-tetrahydro-quinoline-6-carbonyl)-piperidin-4-yl]-5-trifluoromethyl-benzoyl}-guanidine], the IC50 was determined as 4 nM.

`N=C(N)NC(=O)c1ccc([C@@H]2CCN(C(=O)c3ccc(F)cc3)C2)c(C(F)(F)F)c1` [(S)-N-{4-[-1-(4-fluoro-benzoyl)-pyrrolidin-3-yl]-3-trifluoromethyl-benzoyl}-guanidine]: the IC50 is 18 nM.

For the molecule `N=C(N)NC(=O)c1ccc(C2CCN(C(=O)c3ccc4cccnc4n3)CC2)c(C(F)(F)F)c1` [N-{4-[1-([1,8]Naphthyridine-2-carbonyl)-piperidin-4-yl]-3-trifluoromethyl-benzoyl}-guanidine], the IC50 was 25 nM.

Take `Cc1cc(C2CCN(C(=O)c3ncco3)CC2)c(C(F)(F)F)cc1C(=O)NC(=N)N` [N-{2-Methyl-4-[1-(oxazole-2-carbonyl)-piperidin-4-yl]-5-trifluoromethyl-benzoyl}-guanidine]: the IC50 was 12 nM.

For the molecule `CC(C)(N)C(=O)N1CCC(c2ccc(C(=O)NC(=N)N)cc2C(F)(F)F)CC1` [N-{4-[1-(2-Amino-2-methyl-propionyl)-piperidin-4-yl]-3-trifluoromethyl-benzoyl}-guanidine], the IC50 amounted to 8 nM.

As to `N=C(N)NC(=O)c1ccc(C2CCN(C(=O)C3CCCCN3)CC2)c(C(F)(F)F)c1` (centres unmarked) [N-{4-[1-(Piperidine-2-carbonyl)-piperidin-4-yl]-3-trifluoromethyl-benzoyl}-guanidine], the IC50 came to 9 nM.

Consider `CN1CCC(C(=O)N2CCC(c3ccc(C(=O)NC(=N)N)cc3C(F)(F)F)CC2)CC1` [N-{4-[1-(1-Methyl-piperidine-4-carbonyl)-piperidin-4-yl]-3-trifluoromethyl-benzoyl}-guanidine], for which the IC50 amounted to 0.3 nM.

Regarding `N=C(N)NC(=O)c1ccc(C2CCN(C(=O)c3ccccc3)CC2)c(C(F)(F)F)c1` [N-[4-(1-Benzoyl-piperidin-4-yl)-3-trifluoromethyl-benzoyl]-guanidine], the IC50 is 45 nM.

Take `N=C(N)NC(=O)c1ccc([C@@H]2CCN(C(=O)c3ccco3)C2)c(C(F)(F)F)c1` [(S)-N-{4-[-1-(Furan-2-carbonyl)-pyrrolidin-3--yl]-3-trifluoromethyl-benzoyl}-guanidine]: the IC50 came out at 17 nM.

On to `N=C(N)NC(=O)c1ccc(C2CCN(C(=O)C3CCN(c4ncccn4)CC3)CC2)c(C(F)(F)F)c1` [N-{4-[1-(1-Pyrimidin-2-yl-piperidine-4-carbonyl)-piperidin-4-yl]-3-trifluoromethyl-benzoyl}-guanidine], for which the IC50 worked out at 70 nM.

As to `CC(=O)N1CCC(c2cc(C)c(C(=O)NC(=N)N)cc2S(C)(=O)=O)CC1` [N-[4-(1-Acetyl-piperidin-4-yl)-5-methanesulfonyl-2-methyl-benzoyl]-guanidine], the IC50 was found to be 12 nM.

For `Cc1cc(C2CCN(C(=O)c3cccc(C(F)(F)F)c3)CC2)c(S(C)(=O)=O)cc1C(=O)NC(=N)N` [N-{5-methanesulfonyl-2-methyl-4-[1-(3-trifluoromethyl-benzoyl)-piperidin-4-yl]-benzoyl}-guanidine], the IC50 amounted to 51 nM.

In the case of `N=C(N)NC(=O)c1ccc(C2CCN(C(=O)c3ccc(O)cc3)CC2)c(C(F)(F)F)c1` [N-{4-[1-(4-Hydroxy-benzoyl)-piperidin-4-yl]-3-trifluoromethyl-benzoyl}-guanidine], the IC50 was 25 nM.

Take `C[S+]([O-])c1ccc(C(=O)N2CCC(c3ccc(C(=O)NC(=N)N)cc3C(F)(F)F)CC2)cc1` (centres unmarked) [N-{4-[1-(4-Methanesulfinyl-benzoyl)-piperidin-4-yl]-3-trifluoromethyl-benzoyl}-guanidine]: the IC50 is 28 nM.

Consider `N=C(N)NC(=O)c1ccc([C@H]2CCN(C(=O)c3ccc(F)cc3)C2)c(C(F)(F)F)c1` [(R)-N-{4-[1-(4-fluoro-benzoyl)-pyrrolidin-3-yl]-3-trifluoromethyl-benzoyl}-guanidine], for which the IC50 was determined as 24 nM.

With `N=C(N)NC(=O)c1ccc(C2CCN(C(=O)c3ccc(S(N)(=O)=O)cc3)CC2)c(C(F)(F)F)c1` [4-[4-(4-Guanidinocarbonyl-2-trifluoromethyl-phenyl)-piperidine-1-carbonyl]-benzenesulfonamdide], the IC50 was 13 nM.
